In patent US7128900B2, “Light-protection agents” (Merck Patent GmbH, priority 2002, dated 2006):
Several values for one entry are separate records, joined by “and”; a condition that tells them apart may be missing. Identical values can stand only once.

Assay: UV absorption spectrum (UV-VIS) in 2-propanol
Format: physicochemical
Conditions: for UV absorption maximum λ / ε at the UV absorption maximum: in 2-propanol; for UV-vis λmax: several maxima listed
Procedure: The UV-VIS spectrum was measured on a Varian Cary 100 biospectrophotometer fitted with a heated cell holder (concentration=0.001 g/100 ml of 2-propanol; cell thickness d=1 cm; wavelength range: 200 to 800 nm).
The UV-VIS spectrum was measured on a Varian Cary 100 biospectrophotometer fitted with a heated cell holder (concentration=0.001 g/ 100 ml of 2-propanol; cell thickness d=1 cm; wavelength range: 200 to 800 nm).

Q: With COc1ccc(-c2cc(=O)c3cc(O)ccc3o2)cc1 [Example 1, 4′-methoxy-6-hydroxyflavone] as the compound, how does the “UV absorption maximum λ” value read?
A: 322 nm

Q: What about the “ε at the UV absorption maximum” value of the same compound?
A: 24790

Q: Which results are given for O=c1cc(-c2ccc(O)cc2)oc2cc(O)ccc12 [Example 3, 4′,7-dihydroxyflavone]?
A: UV absorption maximum λ: 329 nm; ε at the UV absorption maximum: 27960

Q: For COc1ccc(-c2cc(=O)c3ccc(OC4O[C@H](CO)[C@@H](O)[C@H](O)[C@H]4O)cc3o2)cc1 (stereo partly drawn) [Example 4, 4′-methoxy-7-β-glucosidylflavone], which “UV absorption maximum λ” value is on record?
A: 318 nm

Q: What about the “ε at the UV absorption maximum” value of the same compound?
A: 37185

Q: What does the source list for COc1cc(-c2cc(=O)c3cc(O)c(O)cc3o2)cc(OC)c1OC [Example 5, 2-(3′,4′,5′-trimethoxyphenyl)-6,7-dihydroxy-4-oxo-4H-1-benzopyran]?
A: UV-vis (e) at λmax 281 nm (2-propanol, 1 mg/100 ml, 281 nm): 8267; UV-vis (e) at λmax 324 nm (2-propanol, 1 mg/100 ml, 324 nm): 16036; UV-vis λmax (2-propanol, 1 mg/100 ml): 281 nm and 324 nm

Q: With O=c1cc(-c2ccc(O)cc2)oc2ccc(O)cc12 [Example 6, 2-(4′-hydroxyphenyl)-6-hydroxy-4-oxo-4H-1-benzopyran] as the compound, how does the “UV-vis (e) at λmax 228 nm” value (2-propanol, 1 mg/100 ml, 228 nm) read?
A: 23068

Q: What about the “UV-vis (e) at λmax 277 nm” value (2-propanol, 1 mg/100 ml, 277 nm) of the same compound?
A: 14805

Q: And the “UV-vis (e) at λmax 328 nm” value (2-propanol, 1 mg/100 ml, 328 nm)?
A: 30971

Q: What about the “UV-vis λmax” value (2-propanol, 1 mg/100 ml) of the same compound?
A: 228 nm and 277 nm and 328 nm
